Reference: ChEMBL document CHEMBL1201862, “PubChem BioAssay data set” (2004)
Activity calls are given as the source filed them.

What was measured:
[1] = molecular target: Peroxisome proliferator-activated receptor gamma/Nuclear receptor coactivator 3 (Homo sapiens, UniProt P37231); test: (§1) TR-FRET dose response biochemical High Throughput Screening assay for agonists of the steroid receptor coactivator 3 (SRC-3) recruitment by the peroxisome proliferator-activated receptor gamma (PPAR gamma): non-selective agonists. [Related pubchem assays: 1301 (Confirmation screen.), 1048 (Primary screen.)]; format: functional
[2] = molecular target: Peroxisome proliferator-activated receptor gamma/Nuclear receptor coactivator 1 (Homo sapiens, UniProt P37231); test: as §1, with “1 (SRC-1)” for “3 (SRC-3)”, “assays (depositor defined):AID1300, AID1808, AID504735, AID631]” for “assays: 1301 (Confirmation screen.), 1048 (Primary screen.)]”; format: protein assay
Sequence of Peroxisome proliferator-activated receptor gamma/Nuclear receptor coactivator 1 (P37231 whole entry): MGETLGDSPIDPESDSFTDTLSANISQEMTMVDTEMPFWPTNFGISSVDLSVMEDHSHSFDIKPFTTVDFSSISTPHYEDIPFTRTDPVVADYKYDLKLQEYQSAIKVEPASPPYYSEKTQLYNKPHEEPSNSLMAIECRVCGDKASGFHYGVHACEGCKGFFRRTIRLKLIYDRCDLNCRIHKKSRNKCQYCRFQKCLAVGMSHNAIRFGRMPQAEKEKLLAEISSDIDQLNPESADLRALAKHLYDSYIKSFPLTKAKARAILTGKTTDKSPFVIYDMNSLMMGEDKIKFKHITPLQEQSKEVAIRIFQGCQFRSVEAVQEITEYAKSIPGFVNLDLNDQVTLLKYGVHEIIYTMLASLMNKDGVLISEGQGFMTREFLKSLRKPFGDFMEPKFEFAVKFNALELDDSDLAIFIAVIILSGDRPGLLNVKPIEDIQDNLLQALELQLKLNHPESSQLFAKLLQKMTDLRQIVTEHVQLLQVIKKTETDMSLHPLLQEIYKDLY
Sequence of Peroxisome proliferator-activated receptor gamma/Nuclear receptor coactivator 1 (Q15788 whole entry, further chain): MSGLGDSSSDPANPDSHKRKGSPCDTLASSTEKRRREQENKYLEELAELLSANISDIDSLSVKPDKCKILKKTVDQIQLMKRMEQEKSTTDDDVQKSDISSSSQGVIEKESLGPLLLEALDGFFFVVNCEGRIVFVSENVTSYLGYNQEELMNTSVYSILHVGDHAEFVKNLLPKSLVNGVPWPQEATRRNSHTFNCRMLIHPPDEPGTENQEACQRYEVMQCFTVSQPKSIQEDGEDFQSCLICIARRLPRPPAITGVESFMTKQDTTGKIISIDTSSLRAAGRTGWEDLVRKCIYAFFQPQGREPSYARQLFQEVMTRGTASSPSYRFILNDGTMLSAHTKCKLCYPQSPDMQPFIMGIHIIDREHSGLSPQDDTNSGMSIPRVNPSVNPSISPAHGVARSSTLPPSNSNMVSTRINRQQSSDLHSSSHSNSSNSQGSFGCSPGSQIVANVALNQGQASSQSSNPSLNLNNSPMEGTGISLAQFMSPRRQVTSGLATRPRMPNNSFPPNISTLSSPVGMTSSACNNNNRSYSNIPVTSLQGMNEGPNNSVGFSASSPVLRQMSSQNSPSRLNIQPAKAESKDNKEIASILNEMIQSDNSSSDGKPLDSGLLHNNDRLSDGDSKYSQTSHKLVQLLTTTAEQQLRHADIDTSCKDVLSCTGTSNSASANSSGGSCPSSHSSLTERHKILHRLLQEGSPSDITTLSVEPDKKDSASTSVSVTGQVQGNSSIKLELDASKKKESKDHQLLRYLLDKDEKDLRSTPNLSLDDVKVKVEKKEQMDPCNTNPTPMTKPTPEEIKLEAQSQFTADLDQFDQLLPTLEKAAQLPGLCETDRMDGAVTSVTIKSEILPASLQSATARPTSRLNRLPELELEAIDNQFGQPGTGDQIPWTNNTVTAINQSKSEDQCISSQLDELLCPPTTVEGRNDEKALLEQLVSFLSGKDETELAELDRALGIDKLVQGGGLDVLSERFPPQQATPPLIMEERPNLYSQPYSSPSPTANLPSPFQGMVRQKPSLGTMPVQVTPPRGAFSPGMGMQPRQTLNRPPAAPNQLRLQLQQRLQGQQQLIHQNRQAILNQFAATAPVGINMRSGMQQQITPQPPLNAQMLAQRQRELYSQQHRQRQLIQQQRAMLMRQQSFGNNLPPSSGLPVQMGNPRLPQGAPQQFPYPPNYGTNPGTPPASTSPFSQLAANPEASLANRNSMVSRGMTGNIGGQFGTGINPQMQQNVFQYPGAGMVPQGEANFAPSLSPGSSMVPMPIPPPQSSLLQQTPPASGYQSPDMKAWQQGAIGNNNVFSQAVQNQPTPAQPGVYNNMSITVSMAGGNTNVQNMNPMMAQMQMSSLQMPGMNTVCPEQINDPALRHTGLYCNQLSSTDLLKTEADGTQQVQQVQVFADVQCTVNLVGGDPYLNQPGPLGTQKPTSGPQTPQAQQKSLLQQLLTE

[3] = molecular target: Peroxisome proliferator-activated receptor gamma/Nuclear receptor coactivator 2 (Homo sapiens, UniProt P37231); test: TR-FRET dose response biochemical High Throughput Screening assay for agonists of the steroid receptor coactivator 2 (SRC-2) recruitment by the peroxisome proliferator-activated receptor gamma (PPAR gamma): non-selective agonists. [Related pubchem assays: 1297, 1032 ]; format: functional
Sequence of Peroxisome proliferator-activated receptor gamma/Nuclear receptor coactivator 2 (P37231 whole entry): as the sequence (P37231 whole entry) above
Sequence of Peroxisome proliferator-activated receptor gamma/Nuclear receptor coactivator 2 (Q15596 whole entry, further chain): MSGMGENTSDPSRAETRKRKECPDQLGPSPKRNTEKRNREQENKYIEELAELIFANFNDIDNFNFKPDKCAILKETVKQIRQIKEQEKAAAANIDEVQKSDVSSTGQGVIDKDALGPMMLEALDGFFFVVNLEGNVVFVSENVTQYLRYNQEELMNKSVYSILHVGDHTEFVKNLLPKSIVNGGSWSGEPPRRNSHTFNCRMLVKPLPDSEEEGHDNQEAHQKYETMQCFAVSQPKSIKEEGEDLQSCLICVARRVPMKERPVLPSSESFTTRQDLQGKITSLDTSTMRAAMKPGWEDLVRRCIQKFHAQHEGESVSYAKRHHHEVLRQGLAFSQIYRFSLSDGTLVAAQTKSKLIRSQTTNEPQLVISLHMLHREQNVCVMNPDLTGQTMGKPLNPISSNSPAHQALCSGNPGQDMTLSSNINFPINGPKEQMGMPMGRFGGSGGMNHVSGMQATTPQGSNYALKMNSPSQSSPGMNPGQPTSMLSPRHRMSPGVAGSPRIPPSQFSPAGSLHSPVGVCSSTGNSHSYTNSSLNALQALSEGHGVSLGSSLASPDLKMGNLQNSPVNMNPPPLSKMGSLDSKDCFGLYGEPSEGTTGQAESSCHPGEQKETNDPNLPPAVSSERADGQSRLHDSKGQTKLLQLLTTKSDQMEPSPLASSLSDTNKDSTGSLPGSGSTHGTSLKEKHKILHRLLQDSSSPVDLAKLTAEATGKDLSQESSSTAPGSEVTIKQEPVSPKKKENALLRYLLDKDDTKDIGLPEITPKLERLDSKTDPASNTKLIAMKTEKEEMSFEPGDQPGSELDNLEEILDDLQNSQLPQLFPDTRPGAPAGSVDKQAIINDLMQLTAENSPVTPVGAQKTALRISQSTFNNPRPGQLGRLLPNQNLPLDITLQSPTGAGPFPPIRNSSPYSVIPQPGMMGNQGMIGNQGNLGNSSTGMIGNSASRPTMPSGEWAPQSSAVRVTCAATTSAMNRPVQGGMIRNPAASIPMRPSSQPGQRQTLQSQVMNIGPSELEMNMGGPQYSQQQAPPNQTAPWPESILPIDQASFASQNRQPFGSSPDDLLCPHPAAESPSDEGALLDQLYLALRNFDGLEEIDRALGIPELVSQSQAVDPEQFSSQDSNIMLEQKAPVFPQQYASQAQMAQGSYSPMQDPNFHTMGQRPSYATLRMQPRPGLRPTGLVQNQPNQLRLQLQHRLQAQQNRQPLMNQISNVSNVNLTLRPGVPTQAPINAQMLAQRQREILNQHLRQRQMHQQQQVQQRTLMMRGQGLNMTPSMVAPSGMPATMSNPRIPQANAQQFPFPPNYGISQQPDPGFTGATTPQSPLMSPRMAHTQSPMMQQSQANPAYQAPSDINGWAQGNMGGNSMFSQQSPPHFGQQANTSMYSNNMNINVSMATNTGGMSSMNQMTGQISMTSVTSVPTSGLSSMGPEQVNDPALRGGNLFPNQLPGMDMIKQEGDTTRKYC

[4] = molecular target: T1, Alkaline phosphatase, tissue-nonspecific isozyme (Homo sapiens, UniProt P05186); test: human TNAP enzyme inhibitors, SAR follow-up, biochemical, luminescent, dose response (AID 1056)
T1 sequence (P05186 whole entry): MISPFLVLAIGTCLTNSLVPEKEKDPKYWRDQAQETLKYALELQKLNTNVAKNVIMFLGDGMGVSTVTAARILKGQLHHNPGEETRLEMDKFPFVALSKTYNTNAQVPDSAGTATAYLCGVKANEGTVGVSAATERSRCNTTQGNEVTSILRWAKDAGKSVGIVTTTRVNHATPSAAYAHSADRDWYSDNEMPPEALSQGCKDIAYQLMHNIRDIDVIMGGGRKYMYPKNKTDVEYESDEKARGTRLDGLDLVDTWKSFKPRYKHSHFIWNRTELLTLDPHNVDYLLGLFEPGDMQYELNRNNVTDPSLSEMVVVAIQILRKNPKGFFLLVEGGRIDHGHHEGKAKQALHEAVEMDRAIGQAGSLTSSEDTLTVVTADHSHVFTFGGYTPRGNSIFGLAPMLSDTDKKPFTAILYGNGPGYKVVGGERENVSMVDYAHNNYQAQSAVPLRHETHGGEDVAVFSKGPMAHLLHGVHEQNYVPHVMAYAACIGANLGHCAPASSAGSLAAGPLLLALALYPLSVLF

[5] = molecular target: Alkaline phosphatase, placental type (Homo sapiens, UniProt P05187); test: PLAP enzyme inhibitors, confirmation, biochemical, luminescence (AID 1512); format: functional
Sequence of Alkaline phosphatase, placental type (P05187 whole entry): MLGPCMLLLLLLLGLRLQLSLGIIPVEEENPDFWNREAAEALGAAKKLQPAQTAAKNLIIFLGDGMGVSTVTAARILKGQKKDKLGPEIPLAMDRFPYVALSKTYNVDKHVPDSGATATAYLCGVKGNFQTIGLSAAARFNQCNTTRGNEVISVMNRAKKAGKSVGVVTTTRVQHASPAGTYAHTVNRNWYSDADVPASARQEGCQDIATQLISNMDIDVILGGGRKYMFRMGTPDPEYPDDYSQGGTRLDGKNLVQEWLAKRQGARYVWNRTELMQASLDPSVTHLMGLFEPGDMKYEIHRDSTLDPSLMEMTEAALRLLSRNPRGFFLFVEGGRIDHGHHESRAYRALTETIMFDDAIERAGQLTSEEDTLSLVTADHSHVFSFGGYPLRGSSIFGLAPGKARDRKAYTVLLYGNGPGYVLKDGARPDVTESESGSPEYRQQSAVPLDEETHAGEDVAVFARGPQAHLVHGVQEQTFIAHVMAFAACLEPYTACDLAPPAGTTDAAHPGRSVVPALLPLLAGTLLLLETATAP

[6] = molecular target: Glyceraldehyde-3-phosphate dehydrogenase (Homo sapiens, UniProt P04406)
Sequence of Glyceraldehyde-3-phosphate dehydrogenase (P04406 whole entry): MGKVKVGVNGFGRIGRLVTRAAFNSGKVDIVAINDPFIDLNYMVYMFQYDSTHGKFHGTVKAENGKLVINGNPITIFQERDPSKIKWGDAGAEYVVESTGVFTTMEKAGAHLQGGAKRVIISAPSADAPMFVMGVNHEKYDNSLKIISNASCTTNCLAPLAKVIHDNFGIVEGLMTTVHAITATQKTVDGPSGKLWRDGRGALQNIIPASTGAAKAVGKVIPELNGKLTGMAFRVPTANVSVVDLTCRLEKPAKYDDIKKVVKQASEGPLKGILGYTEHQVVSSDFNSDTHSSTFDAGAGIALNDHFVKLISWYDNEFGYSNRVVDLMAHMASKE

[7] = Luminescence Cell-Based Dose Retest to Confirm Inhibitors of Cancer Stem Cells. [Related pubchem assays (depositor defined):AID2717, AID2721]; format: functional; conditions: Homo sapiens
[8] = molecular target: Beta-galactosidase (Escherichia coli, UniProt Q8VNN2); test: PubChem AID 485352; format: functional
[9] = molecular target: T2, Type-1 angiotensin II receptor (Homo sapiens, UniProt P30556); test: AT1 receptor antagonists, dose response, selectivity assay for APJ receptor antagonist project, cell-based, uHTS hits (AID 463214); format: functional;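 also: antagonist potency against angiotensin II stimulated AT1 response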
T2 sequence (P30556 whole entry): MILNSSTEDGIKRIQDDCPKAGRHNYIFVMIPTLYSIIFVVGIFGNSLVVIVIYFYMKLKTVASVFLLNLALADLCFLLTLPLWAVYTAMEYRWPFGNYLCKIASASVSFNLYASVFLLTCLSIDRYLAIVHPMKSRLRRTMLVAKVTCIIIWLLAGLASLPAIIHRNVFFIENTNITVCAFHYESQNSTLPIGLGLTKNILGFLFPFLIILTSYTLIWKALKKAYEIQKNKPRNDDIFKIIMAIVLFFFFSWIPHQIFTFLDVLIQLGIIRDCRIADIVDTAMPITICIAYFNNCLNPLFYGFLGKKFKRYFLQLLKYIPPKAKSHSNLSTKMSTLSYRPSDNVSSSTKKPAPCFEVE

[10] = system: INS1; test: beta cell apoptosis inhibitors, cytokine rescue, dose response, luminescence, retest (AID 449756); format: functional, cell-based; conditions: Rattus norvegicus;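 also: cell death triggered by IL-1 beta plus TNF-alpha plus IFN-gamma mixture; protective hits raise ATP signal compared with cytokine alone wells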

Row | SMILES | EC50 [1] | EC50 [2] | EC50 [3] | IC50 [4] | IC50 [6] | also measured
1 | COc1ccc(CNC(=O)CSc2nc(-c3ccccc3)cc(-c3cccs3)c2C#N)cc1 | > 79.4 µM (not active) | 22.9 µM (inactive) | 22.2 µM (not active) |  |  | 
2 | CC1(C)CC(=O)c2c(n[nH]c2-c2cccnc2)C1 |  |  |  | 13.3 µM (active) | > 100 µM (not active) | IC50 [5]: > 100 µM (inactive)
3 | O=C(O)c1ccc2c(c1)C(=O)N(c1nc(-c3cccnc3)n[nH]1)C2=O |  |  |  | > 100 µM (inactive) | > 100 µM (not active) | 
4 | O=C(NNc1ccc(-c2csnn2)cc1)c1cc(Cl)cc(Cl)c1 |  |  |  |  |  | AC50 [7]: 2.15 µM (active); EC50 [8]: > 40 µM (inactive); IC50 [9]: 2.43 µM (active)
5 | O=C1CC(Sc2nnc(-c3ccccc3)o2)C(=O)N1c1ccccc1 (centres undefined) | > 79.4 µM (not active) | > 79.4 µM (inactive) | 89.2 µM (not active) |  |  | 
6 | Cc1ccc(-n2c(S)nnc2-c2cccc(C)c2)cc1 | > 79.4 µM (not active) | 70.8 µM (inactive) | 40.1 µM (not active) |  |  | 
7 | COc1ccc(CC(=O)OCC(=O)c2ccc(S(=O)(=O)N3CCCCC3)cc2)cc1 |  |  |  |  |  | EC50 [8]: > 40 µM (inactive); IC50 [9]: 20 µM (not active)
8 | O=C(CSc1nnc(-c2ccccc2)[nH]1)c1ccc(O)cc1O |  |  |  | 3.71 µM (active) |  | IC50 [5]: > 100 µM (inactive)
9 | COc1ccc2c(c1)C(=O)[C@H](O)[C@@H](c1ccc(OC)c(Br)c1)O2 |  |  |  |  |  | AC50 [7]: 7.62 µM (active); EC50 [8]: > 40 µM (inactive); IC50 [9]: 12.1 µM (active); AC50 [10]: 3.71 µM (active)
10 | O=S(=O)(Nc1cccnc1)c1cc(Cl)ccc1Cl |  |  |  | > 100 µM (inactive) | > 100 µM (not active) | 
11 | O=C1c2cccc(F)c2C(=O)N1c1nnc(Cc2ccccc2)[nH]1 |  |  |  | 0.353 µM (active) | > 100 µM (not active) | IC50 [5]: > 100 µM (inactive)
12 | O=C(CSc1ncnc2c1oc1ccccc12)NC1CCCCC1 | > 79.4 µM (not active) | 9.85 µM (active) | 14.4 µM (not active) |  |  | 
13 | CCOC(=O)c1sc2nc(C)nc(S)c2c1C | > 79.4 µM (not active) | 162 µM (inactive) | 37.3 µM (not active) |  |  | 
14 | Nc1nc(COc2ccccc2)n(-c2ccccc2)n1 |  |  |  | > 100 µM (inactive) | > 100 µM (not active) | IC50 [5]: > 100 µM (inactive)
